This passage reports IC50 results from US20250197372A1 (priority 2020, published 2025).

Some results are limits rather than exact numbers.

For test [1], the target named is T1, recombinant human GBA (beta-glucocerebrosidase) (Homo sapiens, UniProt P04062).
T1 sequence (P04062 40-536): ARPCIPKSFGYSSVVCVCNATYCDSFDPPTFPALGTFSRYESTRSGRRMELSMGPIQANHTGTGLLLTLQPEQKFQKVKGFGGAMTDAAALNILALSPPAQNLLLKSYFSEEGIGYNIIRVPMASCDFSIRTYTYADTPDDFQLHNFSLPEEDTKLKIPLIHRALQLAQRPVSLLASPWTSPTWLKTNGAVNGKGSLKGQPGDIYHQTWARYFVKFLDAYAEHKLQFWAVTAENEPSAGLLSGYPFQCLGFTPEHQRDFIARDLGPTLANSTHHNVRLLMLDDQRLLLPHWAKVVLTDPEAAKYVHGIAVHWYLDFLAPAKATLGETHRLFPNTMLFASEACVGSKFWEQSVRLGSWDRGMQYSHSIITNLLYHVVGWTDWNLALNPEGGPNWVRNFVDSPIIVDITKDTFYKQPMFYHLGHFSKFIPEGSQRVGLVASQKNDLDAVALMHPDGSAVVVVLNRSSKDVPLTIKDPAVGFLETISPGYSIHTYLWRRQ
Briefly: Beta-glucocerebrosidase (GBA, glucosylceramidase) assay (4-methylumbelliferyl-beta-D-pyranoside substrate, fluorescence). It counts as biochemical. As for the experimental part:
Beta-glucocerebrosidase (GBA, also referred to glucosylceramidase): To analyze inhibitory effects of a test compound, commercially available recombinant human GBA was incubated with multiple dilutions of test compound for 60 minutes at 37° C. 4-methylumbelliferyl-beta-D-pyranoside was then introduced to the mixture as substrate. Following incubation for 60 minutes at 37° C., 1,4-methyllumbelliferone was generated, and the reaction was stopped with the stop solution (0.5 M glycine; 0.3 M NaOH, pH 10). 1,4-methyllumbelliferone was detected by fluorescence (excitation at 365 nm, emission at 440 nm). Relative fluorescence compared to untreated enzymatic activity and test compound concentration is then plotted as a function of percent inhibition. The IC50 was determined using a 4-PL curve fit as the measure of relative inhibitory activity of each test compound (see Table 3).

For test [2], the target named is rat maltase (partially purified alpha-glucosidase from intestinal rat powder). Briefly: Intestinal alpha-glucosidase assay, maltose substrate (Glucose GO Kit). It counts as biochemical. As for the experimental part: Intestinal alpha-glucosidases (rat maltase and sucrase): Intestinal alpha-glucosidases act upon 1,4-alpha-glucoside bonds, breaking down disaccharides to glucose. To perform this assay, partially purified alpha-glucosidase from intestinal rat powder was incubated for 60 minutes at 37° C. with multiple dilutions of test compounds. Maltose or Sucrose respectively was then introduced as substrate to the mixture and incubated for 30 minutes at 37° C. The reaction was stopped by a 5-minute incubation at 90° C. and the resultant glucose production is detected using Sigma's Glucose GO Kit. Percent inhibition was then plotted as a function of concentration for each test compound. The IC50 was determined using a 4-PL curve fit and serves as the measure of relative inhibition of each test compound (see Table 3).

On to `OC[C@@H]1[C@@H](O)[C@H](O)[C@@H](O)CN1CCCCCCNc1ccc(-c2ncco2)cc1Cl` [Compound 1203, (2R,3R,4R,5S)-1-(6-{[2-chloro-4-(1,3-oxazol-2-yl)phenyl]amino}hexyl)-2-(hydroxymethyl)piperidine-3,4,5-triol], for which the results for the IC50 in test [1] and in test [2] were 787 nM and under 1 nM, respectively.

As for `CC(=O)Nc1cc(NCCCCCCN2C[C@H](O)[C@@H](O)[C@H](O)[C@H]2CO)cc(-c2ncccn2)c1` [Compound 1125, N-[3-(pyrimidin-2-yl)-5-({6-[(2R,3R,4R,5S)-3,4,5-trihydroxy-2-(hydroxymethyl)piperidin-1-yl]hexyl}amino)phenyl]acetamide], the IC50 in test [1] turned out to be 9690 nM; in test [2], 15 nM.

With `Cc1cc(NCc2ccc(CN3C[C@H](O)[C@@H](O)[C@H](O)[C@H]3CO)cc2)cc(-c2cccnn2)c1` [Compound 1052, (2R,3R,4R,5S)-2-(hydroxymethyl)-1-{[4-({[3-methyl-5-(pyridazin-3-yl)phenyl]amino}methyl)phenyl]methyl}piperidine-3,4,5-trio], the IC50 in test [1] was 84500 nM; in test [2], 14 nM.

`OC[C@@H]1[C@@H](O)[C@H](O)[C@@H](O)CN1CCc1ccc(CCNc2cc(Cl)cc(C3=COCCO3)c2)cc1` [Compound 1161, (2R,3R,4R,5S)-1-{2-[4-(2-{[3-chloro-5-(5,6-dihydro-1,4-dioxin-2-yl)phenyl]amino}ethyl)phenyl]ethyl}-2-(hydroxymethyl)piperidine-3,4,5-triol]: the IC50 in test [1] was determined as 2820 nM; in test [2], 273 nM.

Regarding `OC[C@@H]1[C@@H](O)[C@H](O)[C@@H](O)CN1CCc1ccc(CCNc2cc(Cl)cc(-c3ncccn3)c2)cc1` [Compound 1162, (2R,3R,4R,5S)-1-{2-[4-(2-{[3-chloro-5-(pyrimidin-2-yl)phenyl]amino}ethyl)phenyl]ethyl}-2-(hydroxymethyl)piperidine-3,4,5-triol], the IC50 turned out to be 2680 nM in test [1] and 138 nM in test [2].

In the case of `COc1cc(NCCc2ccc(CCN3C[C@H](O)[C@@H](O)[C@H](O)[C@H]3CO)cc2)cc(-c2ccco2)c1` [Compound 1153, (2R,3R,4R,5S)-1-{2-[4-(2-{[3-(furan-2-yl)-5-methoxy-phenyl]amino}ethyl)phenyl]ethyl}-2-(hydroxymethyl)piperidine-3,4,5-triol], the IC50 in test [1] was found to be 1090 nM; in test [2], 321 nM.

As to `OC[C@@H]1[C@@H](O)[C@H](O)[C@@H](O)CN1CCCCCCNc1ccc(-c2cccnn2)cc1Cl` [Compound 1202, (2R,3R,4R,5S)-1-(6-{[2-chloro-4-(pyridazin-3-yl)phenyl]amino}hexyl)-2-(hydroxymethyl)piperidine-3,4,5-triol], the concentration for half-maximal inhibition (IC50) in test [1] was 3010 nM; in test [2] it was under 1 nM.

With `O=[N+]([O-])c1cc(N2CCOCC2)ccc1NCc1cccc(CN2C[C@H](O)[C@@H](O)[C@H](O)[C@H]2CO)c1` [Compound 1067, (2R,3R,4R,5S)-2-(hydroxymethyl)-1-{[3-({[4-(morpholin-4-yl)-2-nitrophenyl]amino}methyl)phenyl]methyl}piperidine-3,4,5-triol], the IC50 in test [1] came to 3720 nM; in test [2], 81 nM.

On to `[N-]=[N+]=Nc1ccc(NCCc2ccc(CCN3C[C@H](O)[C@@H](O)[C@H](O)[C@H]3CO)c3c2OCCO3)c([N+](=O)[O-])c1` [Compound 1173, (2R,3R,4R,5S)-1-[2-(8-{2-[(4-azido-2-nitrophenyl)amino]ethyl}-2,3-dihydro-1,4-benzodioxin-5-yl)ethyl]-2-(hydroxymethyl)piperidine-3,4,5-triol], for which the IC50 came out at 5320 nM in test [1] and 48 nM in test [2].

`OC[C@@H]1[C@@H](O)[C@H](O)[C@@H](O)CN1CCCCCCNc1cc(-c2ncccn2)cc(C(F)(F)F)c1` [Compound 1131, (2R,3R,4R,5S)-2-(hydroxymethyl)-1-(6-{[3-(pyrimidin-2-yl)-5-(trifluoromethyl)phenyl]amino}hexyl)piperidine-3,4,5-triol]: the IC50 in test [1] came out at 308 nM; in test [2], 8 nM.

As usually defined, the IC50 is the concentration that gives 50% inhibition.
